IC50 data for 1 molecule are collected here from publication PMC6115343 (The Korean Journal of Physiology & Pharmacology : …, 2018).

This assay has as its target Transient receptor potential vanilloid 1 (TRPV1) (Mus musculus, UniProt Q704Y3). Kind of assay: whole-cell patch clamp of native TRPV1 currents in cultured mouse DRG neurons. Format: cell-based. A general note: In patch-clamp work, channel activity is measured electrically.

pIC50: −log10 of the molar value.

Sequence of Transient receptor potential vanilloid 1 (TRPV1) (Q704Y3 whole entry): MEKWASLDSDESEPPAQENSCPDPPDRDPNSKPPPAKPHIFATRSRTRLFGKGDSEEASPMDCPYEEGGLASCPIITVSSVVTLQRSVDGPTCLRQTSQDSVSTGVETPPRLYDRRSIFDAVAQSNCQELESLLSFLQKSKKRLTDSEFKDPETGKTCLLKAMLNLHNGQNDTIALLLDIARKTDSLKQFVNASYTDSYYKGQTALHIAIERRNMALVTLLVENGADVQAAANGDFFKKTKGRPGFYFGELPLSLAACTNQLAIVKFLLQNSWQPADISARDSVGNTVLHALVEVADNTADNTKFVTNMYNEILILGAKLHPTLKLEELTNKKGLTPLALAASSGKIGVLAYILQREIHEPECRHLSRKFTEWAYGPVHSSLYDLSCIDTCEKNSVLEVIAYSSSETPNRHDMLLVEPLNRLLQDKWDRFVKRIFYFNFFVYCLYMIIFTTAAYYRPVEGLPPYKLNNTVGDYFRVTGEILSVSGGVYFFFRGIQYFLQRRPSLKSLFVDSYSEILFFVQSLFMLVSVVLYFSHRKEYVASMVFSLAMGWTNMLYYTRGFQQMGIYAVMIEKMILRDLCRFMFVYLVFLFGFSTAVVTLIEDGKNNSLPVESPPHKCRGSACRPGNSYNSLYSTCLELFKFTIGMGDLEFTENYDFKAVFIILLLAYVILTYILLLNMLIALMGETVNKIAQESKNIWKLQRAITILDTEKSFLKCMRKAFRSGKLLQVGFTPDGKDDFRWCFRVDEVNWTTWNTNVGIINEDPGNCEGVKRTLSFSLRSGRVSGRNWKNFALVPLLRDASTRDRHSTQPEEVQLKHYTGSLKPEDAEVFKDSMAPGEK

Broadly, the pIC50 is −log10 of the IC50, conventionally taken in molar units. Low values mean a large IC50, high ones a small IC50. In turn, `COc1cc(/C=C/C(=O)CC(=O)/C=C/c2ccc(O)c(OC)c2)ccc1O` [curcumin] gave a pIC50 of 6.28.
